One data set is described as follows: in vivo. The conditions noted are these: rat, po.
Data set [1] concerns the target T1, acetylcholinesterase from electric eel (Electrophorus electricus, UniProt O42275).
T1 construct: purchased Sigma Chemical; host or cells: electric eel
The data set can be described thus: biochemical.

Data set [2] has as its target T2, acetylcholinesterase from human red blood cells (Homo sapiens, UniProt P22303).
T2 construct: purchased Sigma Chemical; host or cells: human erythrocyte
Kind of data set: Inhibition of acetylcholinesterase from human erythrocyte (Ellman colorimetric method). Type of data set: biochemical. Conditions: for Activity against human red blood cells acetylcholinesterase (in words): Table 2 results. For orientation: DTNB colorimetry detects thiols as they appear.

Data set [3] deals with T3, butyrylcholinesterase from human serum (Homo sapiens, UniProt P06276).
T3 construct: purchased Sigma Chemical; host or cells: human serum
Kind of data set: Inhibition of butyrylcholinesterase from human serum (Ellman colorimetric method). Type of data set: biochemical.

In data set [4] the target is T4, acetylcholinesterase from homogenate of in toto rat brain (Rattus norvegicus, UniProt P37136).
T4 construct: acetylcholinesterase from homogenate of in toto rat brain; from tissue; host or cells: rat whole brain homogenate
T4 sequence (P37136 32-614): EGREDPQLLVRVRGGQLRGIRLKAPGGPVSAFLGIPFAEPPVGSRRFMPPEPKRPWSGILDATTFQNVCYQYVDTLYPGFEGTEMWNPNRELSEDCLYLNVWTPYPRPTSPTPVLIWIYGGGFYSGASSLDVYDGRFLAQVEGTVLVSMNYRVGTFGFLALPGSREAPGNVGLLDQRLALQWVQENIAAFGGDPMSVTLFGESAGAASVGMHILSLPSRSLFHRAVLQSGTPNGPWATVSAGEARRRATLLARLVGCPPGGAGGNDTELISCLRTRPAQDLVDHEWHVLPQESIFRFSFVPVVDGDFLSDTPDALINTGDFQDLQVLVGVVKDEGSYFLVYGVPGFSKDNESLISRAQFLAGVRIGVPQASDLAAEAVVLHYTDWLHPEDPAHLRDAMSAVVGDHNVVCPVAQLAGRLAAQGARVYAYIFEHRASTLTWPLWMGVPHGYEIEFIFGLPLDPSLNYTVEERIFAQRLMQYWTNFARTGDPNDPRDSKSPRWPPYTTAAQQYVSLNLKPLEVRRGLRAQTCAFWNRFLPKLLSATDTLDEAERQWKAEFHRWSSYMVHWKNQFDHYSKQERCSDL
Kind of data set: Inhibition of acetylcholinesterase from rat brain homogenate. Type of data set: biochemical. The conditions noted are these: contact time 10'; read-out: Cholinesterase Inhibition IC50, AChE rat brain. An excerpt:
The compounds prepared as per the Examples reported above and several other compounds under the present invention (Table 1) were pharmacologically tested with a view to determining their inhibitory effect on acetylcholinesterase and butyrylcholinesterase activity. The used method had been developed by Ellman et al. (Ellman, G. L., Courtney, K. D., Andres, V., Featherstone, R. M.: "A New and Rapid Colorimetric Determination of Acetylcholinesterase Activity", Biochem. Pharm. 7, 88, 1961).
AChE rat brain: acetylcholinesterase from homogenate of in toto rat brain
t: contact time (minutes)
IC50 M: median inhibitory molar concentration

Another data set deals with patients. The conditions noted are these: prior art, cited from earlier work; for Clinical effects in patients (in words): mental diseases / Alzheimer's disease.
In another data set the test system is acetylcholinesterase. The conditions noted are these: cited from earlier work.
The conditions of data set [5]: prior art; cited from earlier work.
The conditions of data set [6]: cited from earlier work.
[7] abbreviates: Cholinesterase Inhibition IC50, AChE E.eel, contact time 10'.
Where [8] appears, read: contact time 10', read-out: Cholinesterase Inhibition IC50, AChE hRBC.
[9] abbreviates: Cholinesterase Inhibition IC50, AChE hRBC, contact time 10'.
The mark [10] stands for this setting: Cholinesterase Inhibition IC50, AChE hRBC, contact time 30'.
Where [11] appears, read: Cholinesterase Inhibition IC50, AChE hRBC, contact time 60'.

The structures appear in SMILES notation. Where two headings read alike, the source gives them in different places.

T1 sequence (O42275 24-633): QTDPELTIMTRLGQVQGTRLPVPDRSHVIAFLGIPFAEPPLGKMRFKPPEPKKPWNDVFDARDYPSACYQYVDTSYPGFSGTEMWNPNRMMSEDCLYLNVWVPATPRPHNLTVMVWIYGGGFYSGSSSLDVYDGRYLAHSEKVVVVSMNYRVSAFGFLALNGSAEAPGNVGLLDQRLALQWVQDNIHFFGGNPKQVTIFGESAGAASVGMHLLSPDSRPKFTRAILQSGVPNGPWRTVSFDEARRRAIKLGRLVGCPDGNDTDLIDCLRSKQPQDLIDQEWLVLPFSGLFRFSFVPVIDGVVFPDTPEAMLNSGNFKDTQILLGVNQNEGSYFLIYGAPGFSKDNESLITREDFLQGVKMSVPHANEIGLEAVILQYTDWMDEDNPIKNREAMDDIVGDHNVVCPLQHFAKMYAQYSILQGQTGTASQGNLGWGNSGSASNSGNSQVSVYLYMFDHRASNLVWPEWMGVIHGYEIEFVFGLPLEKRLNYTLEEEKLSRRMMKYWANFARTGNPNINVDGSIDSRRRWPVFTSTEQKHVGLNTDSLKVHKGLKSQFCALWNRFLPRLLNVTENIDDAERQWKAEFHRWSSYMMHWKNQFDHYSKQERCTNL
T2 sequence (P22303 32-617 isoform P22303-2 limits assumed): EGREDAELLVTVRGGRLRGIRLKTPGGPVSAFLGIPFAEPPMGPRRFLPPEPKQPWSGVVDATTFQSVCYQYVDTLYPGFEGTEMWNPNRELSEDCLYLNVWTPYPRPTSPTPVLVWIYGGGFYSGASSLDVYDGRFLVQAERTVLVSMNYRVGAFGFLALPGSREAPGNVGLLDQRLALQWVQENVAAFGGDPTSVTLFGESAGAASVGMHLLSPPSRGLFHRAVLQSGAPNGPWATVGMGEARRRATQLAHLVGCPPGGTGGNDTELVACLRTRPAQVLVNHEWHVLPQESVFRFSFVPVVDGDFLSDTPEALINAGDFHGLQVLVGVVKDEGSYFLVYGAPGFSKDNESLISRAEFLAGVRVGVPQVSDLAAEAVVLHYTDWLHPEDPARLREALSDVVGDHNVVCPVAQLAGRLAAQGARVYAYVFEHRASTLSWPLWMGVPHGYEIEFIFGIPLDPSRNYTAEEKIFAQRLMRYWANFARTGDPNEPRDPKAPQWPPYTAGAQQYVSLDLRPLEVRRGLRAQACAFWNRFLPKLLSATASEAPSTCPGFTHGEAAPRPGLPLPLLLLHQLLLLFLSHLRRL
T3 sequence (P06276 29-602): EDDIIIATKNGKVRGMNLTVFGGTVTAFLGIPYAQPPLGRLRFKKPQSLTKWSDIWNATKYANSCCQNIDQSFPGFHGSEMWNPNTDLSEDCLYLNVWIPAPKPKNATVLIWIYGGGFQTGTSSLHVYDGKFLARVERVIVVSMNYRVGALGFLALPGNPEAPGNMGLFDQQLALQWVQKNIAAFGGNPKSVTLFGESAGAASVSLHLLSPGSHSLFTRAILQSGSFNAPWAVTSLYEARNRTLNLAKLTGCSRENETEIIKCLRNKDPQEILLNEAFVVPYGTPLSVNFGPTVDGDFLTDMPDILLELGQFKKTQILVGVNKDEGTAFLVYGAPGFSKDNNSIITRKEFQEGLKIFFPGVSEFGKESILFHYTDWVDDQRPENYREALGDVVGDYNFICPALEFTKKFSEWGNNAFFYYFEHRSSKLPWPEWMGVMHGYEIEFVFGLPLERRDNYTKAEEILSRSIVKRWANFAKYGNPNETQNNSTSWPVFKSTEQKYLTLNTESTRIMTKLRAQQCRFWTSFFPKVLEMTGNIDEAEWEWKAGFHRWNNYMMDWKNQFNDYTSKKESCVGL

One may read the LD50 as the dose at which mortality reaches 50%. High values mean a less toxic substance, low ones a more toxic substance. The term IC50 denotes the concentration that gives 50% inhibition. The compound `CN1CC[C@@]2(C)c3cc(OC(=O)NCCCCCCCCCCN4CCOCC4)ccc3N(C)[C@@H]12` [MF 231] registered an LD50 in “in vivo” of 40 mg/kg. In addition, the IC50 turned out to be 60 nM in data set [1] (setting [7]) and 40 nM in data set [2] (setting [8]). In [2], the “Activity against human red blood cells acetylcholinesterase (in words)” value was “Particularly active”.
In the case of `CCCN(CCC)CCCCCCCCNC(=O)Oc1ccc2c(c1)[C@]1(C)CCN(C)[C@@H]1N2C` [MF 256], in “in vivo”, the 50% lethal dose (LD50) turned out to be 18.3 mg/kg. This compound also returned an IC50 in [2] (setting [9]) of 80 nM. The “Activity against human red blood cells acetylcholinesterase (in words)” value in data set [2] is on record as “Particularly active”.
As for `CN1CC[C@@]2(C)c3cc(OC(=O)NCCCCCCCCCCCCN4CCOCC4)ccc3N(C)[C@@H]12` [MF 228, N-morpholinyldodecylcarbamoyleseroline], the IC50 in [3] turned out to be 100 nM; in [1] (setting [7]), 70 nM; in data set [2] (setting [10]) it was 60 nM; in data set [2] (setting [11]), 30 nM; in data set [2] (setting [8]) it was 70 nM; in data set [4], 380 nM.
For `CN1CC[C@@]2(C)c3cc(OC(=O)NCCCCCN4CCOCC4)ccc3N(C)[C@@H]12` [MF 225, N-morpholinylpentylcarbamoyleseroline], the IC50 was 330000 nM in data set [1] (setting [7]), 2200 nM in data set [2] (setting [10]), 7600 nM in data set [2] (setting [8]) and 500000 nM in data set [4].
With `CN1CC[C@@]2(C)c3cc(OC(=O)NCCCCCCN4CCOCC4)ccc3N(C)[C@@H]12` [MF 227, N-morpholinylhexylcarbamoyleseroline], the IC50 in data set [3] amounted to 100 nM; in [1] (setting [7]) it was 12000 nM; in data set [2] (setting [10]), 380 nM; in data set [2] (setting [8]) it was 930 nM; in [4], 8200 nM.
Consider `CNC(=O)Oc1ccc2c(c1)[C@]1(C)CCN(C)[C@@H]1N2C` [ESERINE, physostigmine], for which the “Clinical effects in patients (in words)” value in the data set with patients is reported as “beneficial effects on patients affected by mental diseases”. Moreover, in the data set on acetylcholinesterase, the “Acetylcholinesterase inhibition, prior art (in words)” value (“Acetylcholinesterase inhibition” below) was “potent natural inhibitor of acetylcholinesterase”. In data set [5], the “Pharmacokinetic properties (in words)” value is “unfavourable pharmacokinetic properties”. In the data set “in vivo”, this compound came in with an LD50 of 4.5 mg/kg.
`CN1CC[C@@]2(C)c3cc(OC(=O)NCCCCCCCCN4CCOCC4)ccc3N(C)[C@@H]12` [MF 217, N-morpholinyloctylcarbamoyleseroline]: the IC50 in [3] was determined as 170 nM; in [1] (setting [7]), 330 nM; in data set [2] (setting [9]) it was 100 nM; in [2] (setting [10]), 76 nM; in [2] (setting [11]) it was 63 nM; in data set [4], 880 nM. The same compound registered an LD50 in the data set “in vivo” of 23 mg/kg. Also, the “Activity against human red blood cells acetylcholinesterase (in words)” value in data set [2] is “Particularly active”.
For `CN1CCN(CCCCCCCCNC(=O)Oc2ccc3c(c2)[C@]2(C)CCN(C)[C@@H]2N3C)CC1` [MF 230, N-(N-methylpiperazinyloctyl)carbamoyleseroline], in the data set “in vivo”, the LD50 stood at 27.7 mg/kg. For the same compound, the concentration for half-maximal inhibition (IC50) was 200 nM in data set [1] (setting [7]); 80 nM in data set [1] (Cholinesterase Inhibition IC50, AChE E.eel, contact time 30'); 30 nM in [2] (setting [9]); 50 nM in [2] (setting [10]). Moreover, in data set [2], the “Activity against human red blood cells acetylcholinesterase (in words)” value was “Particularly active”.
Regarding `CN1CC[C@@]2(C)c3cc(OC(=O)N4CCOCC4)ccc3N(C)[C@@H]12` [MF 215, reference compound], the IC50 in [3] (read-out: Cholinesterase Inhibition IC50, BuChE hserum, contact time 10') amounted to 870000 nM; in data set [2] (read-out: Cholinesterase Inhibition IC50, AChE hRBC, contact time 10'), 19000 nM; in data set [2] (read-out: Cholinesterase Inhibition IC50, AChE hRBC, contact time 30'), 12000 nM; in [2] (read-out: Cholinesterase Inhibition IC50, AChE hRBC, contact time 60') it was 16000 nM. Besides, in the data set with acetylcholinesterase, the “Acetylcholinesterase inhibition” value is “low acetylcholinesterase activity depression”. In [2] (compared with the compounds of this invention), the “Activity compared with the compounds of this invention (in words)” value is recorded as “much lower activity”.
On to `CCCCCCCNC(=O)Oc1ccc2c(c1)[C@]1(C)CCN(C)[C@@H]1N2C` [MF 201, heptylcarbamic ester of eseroline, reference compound], for which the “Side effects, prior art (in words)” value in data set [6] was “reduced side effects”. The “Neutropenia in patients (in words)” value in the data set with patients (clinical pilot test, Alzheimer's disease) was “neutropenia phenomena in some, though very few, patients”. In the data set on patients, the “Clinical effects in patients (in words)” value is listed as “good results in a clinical pilot test on patients affected by Alzheimer's disease”. The IC50 in data set [3] is 40 nM; in data set [1] (contact time 10', read-out: Cholinesterase Inhibition IC50, AChE E.eel) it was 550 nM; in data set [1] (contact time 30', read-out: Cholinesterase Inhibition IC50, AChE E.eel), 410 nM; in data set [1] (contact time 60', read-out: Cholinesterase Inhibition IC50, AChE E.eel), 440 nM; in [2] (read-out: Cholinesterase Inhibition IC50, AChE hRBC), 290 nM. Moreover, the “Acetylcholinesterase inhibition” value in the data set on acetylcholinesterase is reported as “less potent acetylcholinesterase inhibitor than physostigmine”. Further, the “Pharmacokinetic properties (in words)” value in [5] is recorded as “better pharmacokinetic properties”.
`CN1CC[C@@]2(C)c3cc(OC(=O)NCCCCCCCN4CCOCC4)ccc3N(C)[C@@H]12` [MF 224, N-morpholinylheptylcarbamoyleseroline]: the IC50 in data set [3] came out at 300 nM; in data set [1] (setting [7]), 1600 nM; in [2] (setting [10]), 170 nM; in data set [2] (setting [8]), 380 nM; in [4] it was 4100 nM.
Turning to `C[C@@H]1CN(CCCCCCCCNC(=O)Oc2ccc3c(c2)[C@]2(C)CCN(C)[C@@H]2N3C)C[C@H](C)O1` [MF 268, 8-(cis-2,6-dimethylmorpholinyl)octylcarbamoyl eseroline], the values for the IC50 in data set [3] and in data set [2] (setting [9]) were 180 nM and 70 nM, respectively. Further, in “in vivo”, the LD50 was 56 mg/kg. For the same compound, the “Activity against human red blood cells acetylcholinesterase (in words)” value in [2] is listed as “Particularly active”.
`CN1CC[C@@]2(C)c3cc(OC(=O)NCCCCCCCCN4CCSCC4)ccc3N(C)[C@@H]12` [MF 239]: the LD50 in “in vivo” was determined as 23.8 mg/kg. In [2] (setting [9]), this compound registered an IC50 of 50 nM. Also, in data set [2], the “Activity against human red blood cells acetylcholinesterase (in words)” value is “Particularly active”.
In turn, `CN1CC[C@@]2(C)c3cc(OC(=O)NCCCCCCCCCCN4CCCCC4)ccc3N(C)[C@@H]12` [MF 248] displayed an LD50 in the data set “in vivo” of 15.3 mg/kg. The compound also came in with an IC50 in data set [2] (setting [9]) of 19 nM. The “Activity against human red blood cells acetylcholinesterase (in words)” value in data set [2] is reported as “Particularly active”.
